Measurements published in patent publication US6521567B2, “Herbicidal composition” (priority 2001, dated 2003).

System: common cocklebur
Assay: Test Example 4: field spray, herbicidal activity (flumiclorac-pentyl)
Type: in vivo, Xanthium strumarium
Settings: index 0-100; common cocklebur height about 65 cm; 100 g/hectare alone; 1000 liters per hectare spray; after 4 days
Method: The herbicidal effect is evaluated with indices of 0 to 100 at intervals of 5, wherein “0” means that there was no or little difference in the degree of germination or growth between the treated plants and the untreated plants at the time of examination, “100” means that the test plants died completely.
Ten (10) parts of flumiclorac-pentyl were dissolved in 80 parts of xylene, after adding 10 parts of Sorpol 3005X (produced by Toho Chemical), the solution was well stirred and mixed to give 10% emulsifiable concentrate of flumiclorac-pentyl. From the aqueous dilution of said 10% emulsifiable concentrate of flumiclorac-pentyl, with a aqueous dilution of 25% emulsifiable concentrate of thiometon (commercial name: Ekatin EC, produced by Sankyo), 45% emulsifiable concentrate of oxydeprofos (commercial name: Estox EC, produced by Nihon Bayer Agrochem) or 50% emulsifiable concentrate of fenthion (commercial name: baycid EC, produced by Nihon Bayer Agrochem), prepared each aqueous dilution of the prescribed concentration of the present formulation.
Their aqueous dilution of the present formulation, with 1000 liters per hectare, were sprayed over a place in the field where common cocklebur (the height: about 65 cm) were growing. After 4 days from the application, the herbicidal activity were examined.

`CCCCCOC(=O)COc1cc(N2C(=O)C3=C(CCCC3)C2=O)c(F)cc1Cl` [flumiclorac-pentyl, pentyl[2-chloro-5-(cyclohex-1-ene-1,2-dicarboximido)-4-fluorophenoxy]acetate] gave a Herbicidal activity of 30.
